Legend:
Test in all cases: Carna kinome panel
Type in all cases: biochemical
CDK5/p25 = CDK5/p25 (Homo sapiens (Human), UniProt Q00535); details: read-out: % Inhibition at 10 μM of the test compound
skMLCK = skMLCK (Homo sapiens (Human), UniProt Q9H1R3); details: read-out: % Inhibition at 10 μM of the test compound
EPHA5 = EPHA5 (Homo sapiens (Human), UniProt P54756); details: read-out: % Inhibition at 10 μM of the test compound
TNIK = TNIK (Homo sapiens (Human), UniProt Q9UKE5); details: read-out: % Inhibition at 10 μM of the test compound
PDHK4 = PDHK4 (Homo sapiens (Human), UniProt Q16654); details: read-out: % Inhibition at 10 μM of the test compound
CHK1 = CHK1 (Homo sapiens (Human), UniProt O14757); details: read-out: % Inhibition at 10 μM of the test compound
Sequence of CHK1 (O14757 whole entry): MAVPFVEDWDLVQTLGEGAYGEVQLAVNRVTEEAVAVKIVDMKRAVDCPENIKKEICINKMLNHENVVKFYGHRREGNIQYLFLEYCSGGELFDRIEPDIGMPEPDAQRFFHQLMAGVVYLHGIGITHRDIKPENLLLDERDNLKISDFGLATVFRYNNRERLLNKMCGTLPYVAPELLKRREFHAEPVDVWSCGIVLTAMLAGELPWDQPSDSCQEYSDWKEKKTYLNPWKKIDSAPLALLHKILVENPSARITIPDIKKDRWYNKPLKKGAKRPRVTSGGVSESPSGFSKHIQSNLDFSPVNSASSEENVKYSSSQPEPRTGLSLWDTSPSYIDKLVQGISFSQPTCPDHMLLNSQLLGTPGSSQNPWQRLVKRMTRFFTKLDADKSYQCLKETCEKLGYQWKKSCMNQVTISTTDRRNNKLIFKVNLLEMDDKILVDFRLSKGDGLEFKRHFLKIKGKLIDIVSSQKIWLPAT

CDK6/CycD3 = CDK6/CycD3 (Homo sapiens (Human), UniProt Q00534); details: read-out: % Inhibition at 10 μM of the test compound
Sequence of CDK6/CycD3 (Q00534 whole entry, looked up): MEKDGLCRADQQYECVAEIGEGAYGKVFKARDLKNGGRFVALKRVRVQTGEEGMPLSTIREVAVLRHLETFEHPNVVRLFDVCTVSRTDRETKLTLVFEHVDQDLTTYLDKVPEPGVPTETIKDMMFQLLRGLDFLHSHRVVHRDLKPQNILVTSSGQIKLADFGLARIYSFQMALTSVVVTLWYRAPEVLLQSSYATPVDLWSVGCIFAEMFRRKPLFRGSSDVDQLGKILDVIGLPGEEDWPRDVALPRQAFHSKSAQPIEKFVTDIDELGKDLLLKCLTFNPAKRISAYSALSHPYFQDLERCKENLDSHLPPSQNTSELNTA
Sequence of CDK6/CycD3 (P30281 whole entry partner, looked up): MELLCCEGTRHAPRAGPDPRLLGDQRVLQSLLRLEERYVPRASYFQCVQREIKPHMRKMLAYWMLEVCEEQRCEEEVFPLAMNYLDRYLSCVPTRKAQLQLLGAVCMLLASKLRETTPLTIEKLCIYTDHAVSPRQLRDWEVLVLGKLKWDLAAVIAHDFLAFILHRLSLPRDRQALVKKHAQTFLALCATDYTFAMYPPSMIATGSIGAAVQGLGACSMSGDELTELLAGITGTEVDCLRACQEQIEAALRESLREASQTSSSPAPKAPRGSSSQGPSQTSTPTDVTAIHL

TRKA = TRKA (Homo sapiens (Human), UniProt P04629); details: read-out: % Inhibition at 10 μM of the test compound
DYRK2 = DYRK2 (Homo sapiens (Human), UniProt Q92630); details: read-out: % Inhibition at 10 μM of the test compound
CLK3 = CLK3 (Homo sapiens (Human), UniProt P49761); details: read-out: % Inhibition at 10 μM of the test compound
MER = MER (Homo sapiens (Human), UniProt Q12866); details: read-out: % Inhibition at 10 μM of the test compound
CHK2 = CHK2 (Homo sapiens (Human), UniProt O96017); details: read-out: % Inhibition at 10 μM of the test compound
YES = YES (Homo sapiens (Human), UniProt P07947); details: read-out: % Inhibition at 10 μM of the test compound
Sequence of YES (P07947 whole entry): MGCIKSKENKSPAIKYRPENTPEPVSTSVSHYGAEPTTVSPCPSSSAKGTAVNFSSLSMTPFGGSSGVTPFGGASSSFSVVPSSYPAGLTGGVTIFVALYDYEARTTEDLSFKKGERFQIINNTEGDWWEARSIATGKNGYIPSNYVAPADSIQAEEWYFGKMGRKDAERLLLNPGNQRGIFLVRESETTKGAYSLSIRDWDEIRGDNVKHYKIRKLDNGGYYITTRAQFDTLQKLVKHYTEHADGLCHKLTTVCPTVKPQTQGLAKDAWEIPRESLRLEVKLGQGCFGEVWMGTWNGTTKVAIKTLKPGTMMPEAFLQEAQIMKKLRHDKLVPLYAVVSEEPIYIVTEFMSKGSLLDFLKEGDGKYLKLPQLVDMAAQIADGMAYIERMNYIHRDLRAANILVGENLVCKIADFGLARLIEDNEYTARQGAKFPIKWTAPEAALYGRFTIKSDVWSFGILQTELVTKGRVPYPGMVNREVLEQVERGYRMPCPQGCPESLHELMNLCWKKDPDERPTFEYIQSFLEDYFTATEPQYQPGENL

MAP2K3_Cascade = MAP2K3_Cascade (Homo sapiens (Human), UniProt P46734); details: read-out: % Inhibition at 10 μM of the test compound
FGFR4 = FGFR4 (Homo sapiens (Human), UniProt P22455); details: read-out: % Inhibition at 10 μM of the test compound
FGFR1(V561M) = FGFR1(V561M) (Homo sapiens (Human), UniProt P11362, V561M); details: read-out: % Inhibition at 10 μM of the test compound
PDGFRβ = PDGFRβ (Homo sapiens (Human), UniProt P09619); details: read-out: % Inhibition at 10 μM of the test compound
PGK = PGK (Homo sapiens (Human), UniProt Q13976); details: read-out: % Inhibition at 10 μM of the test compound
PAK1 = PAK1 (Homo sapiens (Human), UniProt Q13153); details: read-out: % Inhibition at 10 μM of the test compound
MUSK = MUSK (Homo sapiens (Human), UniProt O15146); details: read-out: % Inhibition at 10 μM of the test compound
ROS = ROS (Homo sapiens (Human), UniProt P08922); details: read-out: % Inhibition at 10 μM of the test compound
EPHA2 = EPHA2 (Homo sapiens (Human), UniProt P29317); details: read-out: % Inhibition at 10 μM of the test compound
Sequence of EPHA2 (P29317 24-976): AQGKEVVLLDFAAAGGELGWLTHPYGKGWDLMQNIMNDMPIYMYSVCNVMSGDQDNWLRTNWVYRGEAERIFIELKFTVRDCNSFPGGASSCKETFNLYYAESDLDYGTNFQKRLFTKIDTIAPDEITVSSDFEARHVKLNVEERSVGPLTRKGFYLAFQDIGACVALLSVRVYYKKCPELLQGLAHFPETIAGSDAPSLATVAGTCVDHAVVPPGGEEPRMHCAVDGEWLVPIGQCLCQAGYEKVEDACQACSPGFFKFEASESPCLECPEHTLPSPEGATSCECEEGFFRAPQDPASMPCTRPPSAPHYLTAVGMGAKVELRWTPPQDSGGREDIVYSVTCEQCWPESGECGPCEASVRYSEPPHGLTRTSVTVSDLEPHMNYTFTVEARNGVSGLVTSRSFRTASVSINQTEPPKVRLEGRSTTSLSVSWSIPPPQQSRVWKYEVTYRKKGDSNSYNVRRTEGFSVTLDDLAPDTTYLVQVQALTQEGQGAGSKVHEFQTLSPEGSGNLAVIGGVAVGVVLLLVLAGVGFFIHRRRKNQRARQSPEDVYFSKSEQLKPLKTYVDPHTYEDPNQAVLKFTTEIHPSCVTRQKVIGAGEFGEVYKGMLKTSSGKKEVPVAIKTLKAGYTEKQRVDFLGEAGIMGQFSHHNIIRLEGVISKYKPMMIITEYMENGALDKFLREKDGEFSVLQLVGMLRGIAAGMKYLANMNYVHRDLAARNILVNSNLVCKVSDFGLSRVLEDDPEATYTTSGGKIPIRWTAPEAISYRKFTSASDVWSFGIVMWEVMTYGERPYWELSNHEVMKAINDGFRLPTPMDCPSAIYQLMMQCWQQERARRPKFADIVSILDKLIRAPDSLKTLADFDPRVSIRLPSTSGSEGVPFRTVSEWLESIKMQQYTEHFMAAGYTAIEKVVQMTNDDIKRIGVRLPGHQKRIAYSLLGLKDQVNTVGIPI

AurB = AurB (Homo sapiens (Human), UniProt Q96GD4); details: read-out: % Inhibition at 10 μM of the test compound
PKCε = PKCε (Homo sapiens (Human), UniProt Q02156); details: read-out: % Inhibition at 10 μM of the test compound
Sequence of PKCε (Q02156 whole entry): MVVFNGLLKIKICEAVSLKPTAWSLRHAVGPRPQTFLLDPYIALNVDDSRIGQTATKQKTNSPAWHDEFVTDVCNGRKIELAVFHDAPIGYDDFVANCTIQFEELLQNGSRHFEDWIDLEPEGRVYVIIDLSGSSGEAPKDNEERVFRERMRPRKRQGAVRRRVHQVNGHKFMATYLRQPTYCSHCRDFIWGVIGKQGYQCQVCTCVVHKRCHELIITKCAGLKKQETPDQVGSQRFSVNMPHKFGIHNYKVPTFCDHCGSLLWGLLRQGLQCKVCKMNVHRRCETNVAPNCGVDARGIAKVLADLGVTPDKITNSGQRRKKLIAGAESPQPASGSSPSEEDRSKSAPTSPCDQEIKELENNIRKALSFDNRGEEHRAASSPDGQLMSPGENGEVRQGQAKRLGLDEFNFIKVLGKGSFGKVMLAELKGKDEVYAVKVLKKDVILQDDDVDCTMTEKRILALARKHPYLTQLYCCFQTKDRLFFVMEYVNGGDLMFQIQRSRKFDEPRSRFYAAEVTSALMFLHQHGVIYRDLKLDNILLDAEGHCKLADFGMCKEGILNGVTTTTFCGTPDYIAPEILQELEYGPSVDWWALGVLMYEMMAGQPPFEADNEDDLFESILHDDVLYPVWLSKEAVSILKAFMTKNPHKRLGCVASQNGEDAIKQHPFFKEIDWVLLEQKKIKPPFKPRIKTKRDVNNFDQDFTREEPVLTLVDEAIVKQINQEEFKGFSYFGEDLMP

IRAK4 = IRAK4 (Homo sapiens (Human), UniProt Q9NWZ3); details: read-out: % Inhibition at 10 μM of the test compound
RSK1 = RSK1 (Homo sapiens (Human), UniProt Q15418); details: read-out: % Inhibition at 10 μM of the test compound
HIPK2 = HIPK2 (Homo sapiens (Human), UniProt Q9H2X6); details: read-out: % Inhibition at 10 μM of the test compound
AurA/TPX2 = AurA/TPX2 (Homo sapiens (Human), UniProt O14965); details: read-out: % Inhibition at 10 μM of the test compound
MAP2K1_Cascade = tested on: MAP2K1_Cascade
Method: Briefly, a selection of compounds was screened against a panel of kinases at a single concentration of 10 μM. […] This was completed using one of two assays, depending on the kinase being examined: 1) IMAP Assay. A solution of 4× inhibitor, 4× substrate/ATP/metal solution and 2× kinase solution was prepared with assay buffer (20 mM HEPES, 0.01% Tween-20, 2 mM DTT, pH 7.4) and mixed, then incubated in 384-well black plates for 1 hour at room temperature. The IMAP binding reagent (IMAP Screening Express kit; Molecular Devices) was added to each well and incubated for 30 minutes. […] 2) Off-Chip Mobility Shift Assay (MSA). A solution of 4× inhibitor, 4× substrate/ATP/metal solution and 2× kinase solution was prepared with assay buffer (20 mM HEPES, 0.01% Triton X-100, 2 mM DTT, pH 7.5) and mixed, then incubated in 384-well plates for 1 or 5 hours depending on the kinase, at room temperature. Termination buffer (QuickScout Screening assist MSA; Carna Biosciences) was added to each well. The entire reaction mixture was then applied to a LabChip3000 system (Caliper Life Science), and the product and substrate peptide peaks were separated and quantified. […] The entire reaction mixture was then applied to a LabChip3000 system (Caliper Life Science), and the product and substrate peptide peaks were separated and quantified.

AKT3 = AKT3 (Homo sapiens (Human), UniProt Q9Y243); details: read-out: % Inhibition at 10 μM of the test compound
RSK4 = RSK4 (Homo sapiens (Human), UniProt Q9UK32); details: read-out: % Inhibition at 10 μM of the test compound
EPHB3 = EPHB3 (Homo sapiens (Human), UniProt P54753); details: read-out: % Inhibition at 10 μM of the test compound
RSK3 = RSK3 (Homo sapiens (Human), UniProt Q15349); details: read-out: % Inhibition at 10 μM of the test compound
TBK1 = TBK1 (Homo sapiens (Human), UniProt Q9UHD2); details: read-out: % Inhibition at 10 μM of the test compound
PKR = PKR (Homo sapiens (Human), UniProt P19525); details: read-out: % Inhibition at 10 μM of the test compound
TEC = TEC (Homo sapiens (Human), UniProt P42680); details: read-out: % Inhibition at 10 μM of the test compound
NuaK1 = NuaK1 (Homo sapiens (Human), UniProt O60285); details: read-out: % Inhibition at 10 μM of the test compound
BMX = BMX (Homo sapiens (Human), UniProt P51813); details: read-out: % Inhibition at 10 μM of the test compound
MET(Y1235D) = MET(Y1235D) (Homo sapiens (Human), UniProt P08581, Y1235D); details: read-out: % Inhibition at 10 μM of the test compound
BRSK1 = BRSK1 (Homo sapiens (Human), UniProt Q8TDC3); details: read-out: % Inhibition at 10 μM of the test compound
PAK2 = PAK2 (Homo sapiens (Human), UniProt Q13177); details: read-out: % Inhibition at 10 μM of the test compound

Sequence of EPHA5 (P54756 25-1037): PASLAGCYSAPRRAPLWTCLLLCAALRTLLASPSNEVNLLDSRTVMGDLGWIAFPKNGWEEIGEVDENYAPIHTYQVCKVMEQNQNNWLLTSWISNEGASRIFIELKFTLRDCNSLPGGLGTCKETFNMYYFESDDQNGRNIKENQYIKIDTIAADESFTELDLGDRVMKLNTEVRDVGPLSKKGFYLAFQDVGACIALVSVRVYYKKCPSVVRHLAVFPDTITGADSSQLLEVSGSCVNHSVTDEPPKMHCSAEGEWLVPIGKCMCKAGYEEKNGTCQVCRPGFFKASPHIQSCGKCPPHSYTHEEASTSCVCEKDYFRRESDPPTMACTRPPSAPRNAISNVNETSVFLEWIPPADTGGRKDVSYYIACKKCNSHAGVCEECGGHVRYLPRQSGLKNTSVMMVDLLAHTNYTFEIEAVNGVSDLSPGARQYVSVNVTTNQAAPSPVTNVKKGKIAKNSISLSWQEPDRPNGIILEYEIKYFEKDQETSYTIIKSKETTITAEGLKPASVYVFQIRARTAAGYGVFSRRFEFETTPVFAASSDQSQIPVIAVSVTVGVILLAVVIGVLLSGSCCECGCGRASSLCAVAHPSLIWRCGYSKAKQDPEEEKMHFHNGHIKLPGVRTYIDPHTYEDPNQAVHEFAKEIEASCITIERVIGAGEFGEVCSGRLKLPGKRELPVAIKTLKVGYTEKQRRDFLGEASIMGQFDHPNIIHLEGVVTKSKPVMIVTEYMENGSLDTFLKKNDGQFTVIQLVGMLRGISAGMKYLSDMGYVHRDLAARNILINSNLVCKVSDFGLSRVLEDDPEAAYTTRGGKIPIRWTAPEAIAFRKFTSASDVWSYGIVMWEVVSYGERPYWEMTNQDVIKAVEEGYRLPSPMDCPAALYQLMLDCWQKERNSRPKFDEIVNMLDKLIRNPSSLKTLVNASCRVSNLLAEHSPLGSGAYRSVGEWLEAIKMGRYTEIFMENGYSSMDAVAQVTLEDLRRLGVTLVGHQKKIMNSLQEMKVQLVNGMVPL
Sequence of CDK5/p25 (Q00535 whole entry, looked up): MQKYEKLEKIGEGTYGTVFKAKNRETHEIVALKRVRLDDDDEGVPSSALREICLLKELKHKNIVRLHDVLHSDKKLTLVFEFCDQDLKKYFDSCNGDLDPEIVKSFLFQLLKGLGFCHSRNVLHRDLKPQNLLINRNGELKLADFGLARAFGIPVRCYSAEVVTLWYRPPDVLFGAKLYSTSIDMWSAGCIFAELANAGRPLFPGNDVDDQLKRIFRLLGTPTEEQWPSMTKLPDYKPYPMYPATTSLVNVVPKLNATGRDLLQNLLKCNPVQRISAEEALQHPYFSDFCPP
Sequence of CDK5/p25 (Q15078 whole entry partner, looked up): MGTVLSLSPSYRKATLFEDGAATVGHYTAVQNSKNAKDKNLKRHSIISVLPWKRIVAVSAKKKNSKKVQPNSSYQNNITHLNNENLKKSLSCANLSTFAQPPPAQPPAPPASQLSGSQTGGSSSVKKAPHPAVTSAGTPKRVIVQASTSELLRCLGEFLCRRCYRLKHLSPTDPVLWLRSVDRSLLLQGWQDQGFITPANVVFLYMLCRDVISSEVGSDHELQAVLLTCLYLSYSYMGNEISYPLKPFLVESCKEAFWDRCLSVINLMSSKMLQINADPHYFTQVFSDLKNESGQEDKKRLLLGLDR

`CCC1(c2ccccc2)C2=C(CC(C)(C)CC2=O)Nc2ncsc21` (centres unmarked) [Compound 1, 9-Ethyl-6,6-dimethyl-9-phenyl-5,6,7,9-tetrahydrothiazolo[4,5-b]quinolin-8(4H)-one] was tested, and the inhibition at 10 µM (CDK5/p25) was 41.2%, the inhibition at 10 µM (skMLCK) was 9.7% and the inhibition at 10 µM (EPHA5) was 9.3%. The inhibition at 10 µM (TNIK) was 8.6%, the inhibition at 10 µM (PDHK4) was 8.3% and the inhibition at 10 µM (CHK1) was 7%. For the same compound, the inhibition at 10 µM (CDK6/CycD3) was 5.5%, the inhibition at 10 µM (TRKA) was 5.4% and the inhibition at 10 µM (DYRK2) was 4%. The inhibition at 10 µM (CLK3) was 3.9%, the inhibition at 10 µM (MER) was 3.8% and the inhibition at 10 µM (CHK2) was 3.3%. For the same compound, the inhibition at 10 µM (YES) was 3.3%, the inhibition at 10 µM (MAP2K3_Cascade) was 2.9% and the inhibition at 10 µM (FGFR4) was 2.8%. The inhibition at 10 µM (FGFR1(V561M)) was 2.6%, the inhibition at 10 µM (PDGFRβ) was 2.5% and the inhibition at 10 µM (PGK) was 0.9%. The inhibition at 10 µM (PAK1) was 0.3%, the inhibition at 10 µM (MUSK) was 0% and the inhibition at 10 µM (ROS) was -0.2%. It also gave an inhibition at 10 µM (EPHA2) of -0.3%, an inhibition at 10 µM (AurB) of -0.4% and an inhibition at 10 µM (PKCε) of -0.7%. For the same compound, the inhibition at 10 µM (IRAK4) was -1.2%, the inhibition at 10 µM (RSK1) was -2% and the inhibition at 10 µM (HIPK2) was -2.5%. The inhibition at 10 µM (AurA/TPX2) was -2.7%, the “% Inhibition at 10 μM of the test compound” value (MAP2K1_Cascade) was −3.2% and the inhibition at 10 µM (AKT3) was -4.5%. It also gave an inhibition at 10 µM (RSK4) of -4.6%, an inhibition at 10 µM (EPHB3) of -4.8% and an inhibition at 10 µM (RSK3) of -4.9%. It also gave an inhibition at 10 µM (TBK1) of -5.3%, an inhibition at 10 µM (PKR) of -8.9% and an inhibition at 10 µM (TEC) of -9.1%. It also gave an inhibition at 10 µM (NuaK1) of -9.2%, an inhibition at 10 µM (BMX) of -10.6% and an inhibition at 10 µM (MET(Y1235D)) of -12.2%. The inhibition at 10 µM (BRSK1) was -12.9% and the inhibition at 10 µM (PAK2) was -15.7%.
